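1) Cells in 96-well plates. 2) Compound, 48 h, 5 concentrations. 3) Linear interpolation between surrounding doses. 4) Unreached endpoint = highest concentration. TGI marks complete inhibition of growth.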
Key:
Assay in all cases: inhibition of tumour cell growth, NCI panel, 48 h
[1] = tested on: 786-0 renal
[2] = tested on: A498 renal
[3] = tested on: A549 NSCLC
[4] = tested on: ACHN renal
[5] = tested on: CCRF-CEM leukemia
[6] = tested on: COLO 205 colon
[7] = tested on: DMS 114 small cell lung
[8] = tested on: DMS 273 small cell lung
[9] = tested on: EKVX NSCLC
[10] = tested on: HCC-2998 colon
[11] = tested on: HCT-116 colon
[12] = tested on: HCT-15 colon
[13] = tested on: HL-60(TB) leukemia
[14] = tested on: HOP-18 NSCLC
[15] = tested on: HOP-62 NSCLC
[16] = tested on: HOP-92 NSCLC
[17] = tested on: HT29 colon
[18] = tested on: IGROV1 ovarian
[19] = tested on: K-562 leukemia
[20] = tested on: KM12 colon
[21] = tested on: KM20L2 colon
[22] = tested on: LOX IMVI melanoma
[23] = tested on: M14 melanoma
[24] = tested on: M19-MEL melanoma
[25] = tested on: MALME-3M melanoma
[26] = tested on: MOLT-4 leukemia
[27] = tested on: NCI-H226 lung
[28] = tested on: NCI-H23 lung
[29] = tested on: NCI-H460 lung
[30] = tested on: NCI-H522 lung
[31] = tested on: OVCAR-3 ovarian
[32] = tested on: OVCAR-4 ovarian
[33] = tested on: OVCAR-8 ovarian
[34] = tested on: RPMI-8226 leukemia
[35] = tested on: RXF 393 renal
[36] = tested on: RXF-631 renal
[37] = tested on: SF-268 CNS
[38] = tested on: SF-295 CNS
[39] = tested on: SF-539 CNS
[40] = tested on: SK-MEL-2 melanoma
[41] = tested on: SK-MEL-28 melanoma
[42] = tested on: SK-MEL-5 melanoma
[43] = tested on: SK-OV-3 ovarian
[44] = tested on: SN12C renal
[45] = tested on: SNB-19 CNS
[46] = tested on: SNB-75 CNS
[47] = tested on: SNB-78 CNS
[48] = tested on: SW-620 colon
[49] = tested on: TK-10 renal
[50] = tested on: U251 CNS
[51] = tested on: UACC-257 melanoma
[52] = tested on: UACC-62 melanoma
[53] = tested on: UO-31 renal
[54] = tested on: XF 498 CNS
[55] = tested on: CAKI-1 renal
[56] = tested on: DLD-1 colon
[57] = tested on: LXFL 529 NSCLC
[58] = tested on: OVCAR-5 ovarian

Structure (SMILES): CCC12CCC(O)C1N(C)CCC2Sc1ccccc1 (stereo unspecified)
- TGI [1]: > 100 µM
- TGI [2]: > 100 µM
- TGI [3]: > 100 µM
- TGI [4]: > 100 µM
- TGI [5]: > 100 µM
- TGI [6]: > 100 µM
- TGI [7]: > 100 µM
- TGI [8]: > 100 µM
- TGI [9]: > 100 µM
- TGI [10]: 94.8 µM
- TGI [11]: > 100 µM
- TGI [12]: > 100 µM
- TGI [13]: 56.5 µM
- TGI [14]: > 100 µM
- TGI [15]: > 100 µM
- TGI [16]: 94.3 µM
- TGI [17]: > 100 µM
- TGI [18]: > 100 µM
- TGI [19]: > 100 µM
- TGI [20]: > 100 µM
- TGI [21]: > 100 µM
- TGI [22]: > 100 µM
- TGI [23]: > 100 µM
- TGI [24]: > 100 µM
- TGI [25]: > 100 µM
- TGI [26]: > 100 µM
- TGI [27]: > 100 µM
- TGI [28]: > 100 µM
- TGI [29]: > 100 µM
- TGI [30]: > 100 µM
- TGI [31]: > 100 µM
- TGI [32]: > 100 µM
- TGI [33]: > 100 µM
- TGI [34]: > 100 µM
- TGI [35]: > 100 µM
- TGI [36]: > 100 µM
- TGI [37]: > 100 µM
- TGI [38]: > 100 µM
- TGI [39]: > 100 µM
- TGI [40]: > 100 µM
- TGI [41]: > 100 µM
- TGI [42]: > 100 µM
- TGI [43]: > 100 µM
- TGI [44]: > 100 µM
- TGI [45]: > 100 µM
- TGI [46]: 87.9 µM
- TGI [47]: > 100 µM
- TGI [48]: > 100 µM
- TGI [49]: > 100 µM
- TGI [50]: > 100 µM
- TGI [51]: > 100 µM
- TGI [52]: > 100 µM
- TGI [53]: > 100 µM
- TGI [54]: > 100 µM

Structure (SMILES): Cc1cc(N(CCC#N)CCC#N)ccc1N=Nc1ccccc1[N+](=O)[O-]
- TGI [1]: > 100 µM
- TGI [2]: > 100 µM
- TGI [3]: > 100 µM
- TGI [4]: > 100 µM
- TGI [55]: > 100 µM
- TGI [5]: > 100 µM
- TGI [6]: > 100 µM
- TGI [56]: > 100 µM
- TGI [7]: > 100 µM
- TGI [8]: > 100 µM
- TGI [9]: > 100 µM
- TGI [10]: > 100 µM
- TGI [12]: > 100 µM
- TGI [13]: > 100 µM
- TGI [14]: > 100 µM
- TGI [15]: > 100 µM
- TGI [17]: > 100 µM
- TGI [18]: > 100 µM
- TGI [19]: > 100 µM
- TGI [20]: > 100 µM
- TGI [22]: > 100 µM
- TGI [57]: > 100 µM
- TGI [23]: > 100 µM
- TGI [24]: > 100 µM
- TGI [25]: > 100 µM
- TGI [26]: > 100 µM
- TGI [27]: > 100 µM
- TGI [28]: > 100 µM
- TGI [30]: > 100 µM
- TGI [31]: > 100 µM
- TGI [32]: > 100 µM
- TGI [58]: > 100 µM
- TGI [33]: > 100 µM
- TGI [35]: > 100 µM
- TGI [36]: > 100 µM
- TGI [37]: > 100 µM
- TGI [38]: > 100 µM
- TGI [39]: > 100 µM
- TGI [40]: > 100 µM
- TGI [41]: > 100 µM
- TGI [42]: > 100 µM
- TGI [43]: > 100 µM
- TGI [44]: > 100 µM
- TGI [46]: > 100 µM
- TGI [47]: > 100 µM
- TGI [48]: > 100 µM
- TGI [49]: > 100 µM
- TGI [50]: > 100 µM
- TGI [51]: > 100 µM
- TGI [52]: > 100 µM
- TGI [53]: > 100 µM
- TGI [54]: 80.9 µM
